The text below walks through data of patent US8557800B2, “Sphingosine kinase inhibitors” (Apogee Biotechnology Corporation, priority 2005, dated 2013).

The subject of data set [1] is mice, multiple cycles of DSS-induced inflammation. The data set can be described thus: Chronic DSS-colitis model (35-day). Format: in vivo, mouse. As to the method: FIG. 13. Effects of Compound 62 on the DAI in the chronic DSS-colitis model. Mice received 2 cycles (7 days per cycle) of DSS (1.5% cycle 1 and 1% cycle 2), 2 cycles of normal drinking water and were randomized by DAI on Day 28 into groups of 8 mice. The mice were then treated as follows: No DSS (▪)—normal drinking water and orally dosed with PEG400 every day for 7 days (water control); DSS alone (▴)—drinking water containing 1.5% DSS and orally dosed with PEG daily for 7 days; DSS+Compound 62 (▾)—drinking water containing 1.5% DSS and orally dosed with Compound 62 (50 mg/kg) every day for 7 days; DSS+Dipentum (♦)—drinking water containing 1.5% DSS and orally dosed with Dipentum (50 mg/kg). *p<0.001 versus No DSS group.
A 35-day model of IBD was used to evaluate the effectiveness of the SK inhibitors in mice that experience multiple cycles of DSS-induced inflammation. This chronic model is similar to the acute model, except that the DSS concentration in the drinking water is lower and animals receive periodic exposure to DSS (DSS on days 1-7, water on Days 8-13, DSS on day 14-21, water on Days 22-27 and then DSS until the completion of the study on Day 35). In these experiments, treatment of the mice with an SK inhibitor or Dipentum began on Day 28 and continued daily until the completion of the study. The DAI index was monitored every other day until Day 28 and then daily until Day 35. Animals were sacrificed on Day 35, and changes in the colon length and cytokine profiles were measured.

Data set [2] in a line: Oral pharmacokinetics in mice (PEG400). Format: in vivo. Conditions: mouse, blood, 100 mg/kg oral gavage in PEG400, female Swiss-Webster mice. As for the experimental part: Oral pharmacokinetic studies were performed on Compounds 62 and 57. Each compound was dissolved in PEG400 and administered to female Swiss-Webster mice at a dose of 100 mg/kg by oral gavage. Mice were anesthetized and blood was removed via cardiac puncture at 5 minutes, 30 minutes, 1, 2, and 8 hours. Concentrations of the test compounds were determined using liquid-liquid extraction, appropriate internal standards and reverse phase HPLC with UV detection. Control blood samples were run to identify compound-specific peaks. Pharmacokinetic parameters were calculated using the WINNONLIN analysis software package (Pharsight). Non-compartmental and compartmental models were tested, with the results shown in Table 7 derived from the best fit equations.

For data set [3], the system named is mouse JC mammary adenocarcimona cell line growing subcutaneously in Balb/c mice. As for the experimental part: The antitumor activity of the representative SK inhibitors were evaluated using a syngeneic tumor model that uses the mouse JC mammary adenocarcimona cell line growing subcutaneously in immunocompetent Balb/c mice (Lee et al., 2003, Oncol Res 14: 49).
In FIG. 1, Balb/c mice, 6-8 weeks old, were injected subcutaneously with 10^6 JC cells suspended in phosphate-buffered saline. The SK inhibitors Compounds 62 and 57 were dissolved in PEG400 and administered to mice every-other day at a dose of 100 mg/kg. Body weights and tumor volumes were monitored daily. In FIG. 1, tumor growth is expressed as the tumor volume relative to day 1 for each animal.

A further data set concerns MDA-MB-231 (breast, ER−). Briefly: Human tumor cell line panel, sulforhodamine B. It is filed as cell-based. Conditions: 48 hours, mean ± sd.
Another data set has as its system NFκB. Briefly: TNFα-induced NFκB reporter cell line. Format: cell-based. Conditions: fibroblasts, TNFα 6 hours. As for the experimental part:
FIG. 5. Inhibition of TNFα-induced activation of NFκB by Compound 62. Fibroblasts transfected with a TNFα-responsive promoter linked to luciferase were treated with the indicated concentrations of Compound 62 and then treated with TNFα for 6 hours. The amount of luciferase expressed by the cells was then measured by luminescence. Values represent the mean±sd luciferase activity in triplicate samples in a typical experiment.
The excellent aqueous solubility of Compound 62 allowed it to be evaluated in an NFκB reporter cell line (FIG. 5). Fibroblasts transfected with an NFκB response element linked to luciferase produce high levels of luciferase upon exposure to TNFα.

For the next data set, the system named is Panc-1 (pancreas). Briefly: Human tumor cell line panel, sulforhodamine B. It is filed as cell-based. The settings on record: 48 hours, mean ± sd.
Data set [4] deals with MCF-7 human breast adenocarcinoma cells. Briefly: Cytotoxicity, SRB binding assay. Format: cell-based. Conditions: MCF7, inhibition of cell proliferation, 48 h, read-out: MCF-7 IC50. The gist of the method: (§1)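 Cells exposed to varying compound doses for 48 h, then survival measured by sulforhodamine B staining. IC50 is the concentration giving 50% proliferation inhibition, in μM, as mean±sd of replicate trials.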

Data set [5] has as its system MCF-10A non-transformed human breast epithelial cells. The data set can be described thus: Cytotoxicity, SRB binding assay. It is filed as cell-based. Conditions: inhibition of cell proliferation, 48 h, read-out: MCF-10A IC50. The gist of the method: as §1
The next data set relates to SK-OV-3 (ovary). The data set can be described thus: Human tumor cell line panel, sulforhodamine B. Format: cell-based. The settings on record: 48 hours, mean ± sd.
The subject of another data set is T24 (bladder). The data set can be described thus: Human tumor cell line panel, sulforhodamine B. The settings on record: 48 hours, mean ± sd. It is filed as cell-based.
The subject of a further data set is MCF-7 (breast, ER+). The data set can be described thus: Human tumor cell line panel, sulforhodamine B. Conditions: MCF7, 48 hours, mean ± sd. Format: cell-based.

Read-outs that look alike come from different tables or passages of the source.

In turn, `O=C(NCc1ccncc1)C12CC3CC(C1)CC(c1ccc(Cl)cc1)(C3)C2` [Compound 62, 3-(4-Chloro-phenyl)-adamantane-1-carboxylic acid (pyridin-4-ylmethyl)-amide] registered a colon length in [1] (50 mg/kg oral daily Day 28-35, DSS alone 4.9±0.2, water 7.8±0.3) of 6.2±0.2 cm. Also, the “increase in DAI” value in data set [1] (50 mg/kg oral daily from Day 28 to Day 35, third DSS exposure) is recorded as “significantly suppressed”. In addition, the “colon SK expression (immunohistochemistry)” value in data set [1] (DSS mice, 50 mg/kg oral daily) is reported as “clearly reduced”. Besides, in data set [1] (at sacrifice, Day 35), the “serum level of IL-6” value was “reduced”. For the same compound, in data set [1] (oral 50 mg/kg daily, 7 days prior to sacrifice), the “colon S1P levels” value is listed as “significant reductions”. Moreover, the “colon levels of pro-inflammatory cytokines TNFα, IL-1β, IFN-γ and IL-6” value in data set [1] (treated during the final DSS cycle) is reported as “reduced levels”. The compound further yielded a Cmax in data set [2] of 55.8 µM. In [2], the Tmax was found to be 0.5 h. Also, in data set [2], the half-life was 7.3 h. The AUC(0-inf) in data set [2] (read-out: AUC0→∞ (μM * h)) is 452 µM·h; in [2] (read-out: AUC0→∞ (μg * h/mL)) it was 172 µg·h/mL. For the same compound, the “inhibition of tumor growth relative to controls” value in data set [3] (100 mg/kg oral every-other day in PEG400) is 69%. The In vivo activity entry in [3] (JC tumor model, intraperitoneal (ip) or oral (po) administration) was “active - ip and po”. Moreover, the “toxicity to the mice in dose-response study” value in data set [3] (mouse, in vivo) was “No toxicity”. Also, the IC50 turned out to be 29.1 ± 11.1 µM in the data set on MDA-MB-231 (breast, ER−); 32.8 ± 0.1 µM with Panc-1 (pancreas); 17 µM in [4]; 21 µM in [5]; 10.5 ± 2.6 µM in the data set with SK-OV-3 (ovary); 39.4 ± 7.4 µM with T24 (bladder). In the data set on MCF-7 (breast, ER+), the IC50 was 18.4 ± 7.4 µM. Also, the “activation of NFκB by TNFα (luciferase)” value in the data set on NFκB is “dose-dependently suppressed”.
